Measurements published in paper PMC7206119, “RIP1 inhibition blocks inflammatory diseases but not tumor growth or metastases” (Cell Death and Differentiation, 2019).

Assays:
Assay in all cases: biochemical
Parameters in all cases: Thermo Fisher SelectScreen kinase panel: Z'-LYTE and Adapta activity, LanthaScreen binding
AKT1 = AKT1 (Homo sapiens, UniProt P31749)
Method: (§1) 5 88 GNE684 was tested in Thermo Fisher Scientific SelectScreen assay (Madison, WI) 89 against 221 representative kinases at a concentration of 10 µM, which is 476-fold greater than the Ki app 90 for GNE684 against human RIP1 in the RIP1 enzyme 91 assay. The kinase assays were carried out using Z'-LYTE and Adapta activity and 92 LanthaScreen binding assays (Thermo Fisher Scientific, Madison WI) following 93 protocols developed and performed by Thermo Fisher Scientific 94 (https://www.thermofisher.com/us/en/home/products-and-services/services/custom-95 services/screening-and-profiling-services/selectscreen-profiling-service/selectscreen-96 kinase-profiling-service.html). 97 GNE684 was also tested against 468 kinases in the KINOMEscan scanMAX kinase 98 binding assay panel at a concentration of 10 µM following protocols developed and 99 performed by DiscoverX (http://www.discoverx.com/kinase_profiling).

ALK2 = target: T1, ALK2 (Homo sapiens, UniProt Q04771)
T1 construct: gene ACVR1
Method: as §1

BTK = BTK (Homo sapiens, UniProt Q06187)
Method: as §1

CaMKI_delta = target: T2, CaMKI_delta (Homo sapiens, UniProt Q8IU85)
T2 construct: gene CAMK1D
Method: as §1

DDR1 = DDR1 (Homo sapiens, UniProt Q08345)
Method: as §1

EPHA7 = EPHA7 (Homo sapiens, UniProt Q15375)
Method: as §1

ERK2 = target: T3, ERK2 (Homo sapiens, UniProt P28482)
T3 construct: gene MAPK1
Method: as §1

FLT1 = FLT1 (Homo sapiens, UniProt P17948)
Method: as §1

GSK3_beta = target: T4, GSK3_beta (Homo sapiens, UniProt P49841)
T4 construct: gene GSK3B
Method: as §1

IKK-beta = target: T5, IKK-beta (Homo sapiens, UniProt O14920)
T5 construct: gene IKBKB
Method: as §1

INSR = INSR (Homo sapiens, UniProt P06213)
Method: as §1

JAK2 = JAK2 (Homo sapiens, UniProt O60674)
Method: as §1

MELK = MELK (Homo sapiens, UniProt Q14680)
Method: as §1

MSSK1 = target: T6, MSSK1 (Homo sapiens, UniProt Q9UPE1)
T6 construct: gene SRPK3
Method: as §1

MTOR = MTOR (Homo sapiens, UniProt P42345)
Method: as §1

PKD1 = target: T7, PKD1 (Homo sapiens, UniProt Q15139)
T7 construct: gene PRKD1
Method: as §1

RSK3 = target: T8, RSK3 (Homo sapiens, UniProt Q15349)
T8 construct: gene RPS6KA2
Method: as §1

SGK1 = SGK1 (Homo sapiens, UniProt O00141)
Method: as §1

SPHK1 = SPHK1 (Homo sapiens, UniProt Q9NYA1)
Method: as §1

SYK = SYK (Homo sapiens, UniProt P43405)
Method: as §1

TBK1 = TBK1 (Homo sapiens, UniProt Q9UHD2)
Method: as §1

TXK = TXK (Homo sapiens, UniProt P42681)
Method: as §1

ZAK = target: T9, ZAK (Homo sapiens, UniProt Q9NYL2)
T9 construct: gene MAP3K20
Method: as §1

Sequence of SPHK1 (Q9NYA1 whole entry): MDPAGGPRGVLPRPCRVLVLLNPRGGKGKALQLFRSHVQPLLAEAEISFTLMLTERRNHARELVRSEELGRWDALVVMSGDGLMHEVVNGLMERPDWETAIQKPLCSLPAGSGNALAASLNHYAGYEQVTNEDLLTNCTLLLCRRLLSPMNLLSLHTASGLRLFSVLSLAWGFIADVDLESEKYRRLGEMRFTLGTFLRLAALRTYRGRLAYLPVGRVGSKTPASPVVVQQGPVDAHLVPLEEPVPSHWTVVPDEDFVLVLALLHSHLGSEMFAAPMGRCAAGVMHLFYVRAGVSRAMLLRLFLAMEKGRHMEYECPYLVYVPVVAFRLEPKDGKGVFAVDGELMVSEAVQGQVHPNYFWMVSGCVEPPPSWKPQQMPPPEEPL
T7 sequence (Q15139 whole entry): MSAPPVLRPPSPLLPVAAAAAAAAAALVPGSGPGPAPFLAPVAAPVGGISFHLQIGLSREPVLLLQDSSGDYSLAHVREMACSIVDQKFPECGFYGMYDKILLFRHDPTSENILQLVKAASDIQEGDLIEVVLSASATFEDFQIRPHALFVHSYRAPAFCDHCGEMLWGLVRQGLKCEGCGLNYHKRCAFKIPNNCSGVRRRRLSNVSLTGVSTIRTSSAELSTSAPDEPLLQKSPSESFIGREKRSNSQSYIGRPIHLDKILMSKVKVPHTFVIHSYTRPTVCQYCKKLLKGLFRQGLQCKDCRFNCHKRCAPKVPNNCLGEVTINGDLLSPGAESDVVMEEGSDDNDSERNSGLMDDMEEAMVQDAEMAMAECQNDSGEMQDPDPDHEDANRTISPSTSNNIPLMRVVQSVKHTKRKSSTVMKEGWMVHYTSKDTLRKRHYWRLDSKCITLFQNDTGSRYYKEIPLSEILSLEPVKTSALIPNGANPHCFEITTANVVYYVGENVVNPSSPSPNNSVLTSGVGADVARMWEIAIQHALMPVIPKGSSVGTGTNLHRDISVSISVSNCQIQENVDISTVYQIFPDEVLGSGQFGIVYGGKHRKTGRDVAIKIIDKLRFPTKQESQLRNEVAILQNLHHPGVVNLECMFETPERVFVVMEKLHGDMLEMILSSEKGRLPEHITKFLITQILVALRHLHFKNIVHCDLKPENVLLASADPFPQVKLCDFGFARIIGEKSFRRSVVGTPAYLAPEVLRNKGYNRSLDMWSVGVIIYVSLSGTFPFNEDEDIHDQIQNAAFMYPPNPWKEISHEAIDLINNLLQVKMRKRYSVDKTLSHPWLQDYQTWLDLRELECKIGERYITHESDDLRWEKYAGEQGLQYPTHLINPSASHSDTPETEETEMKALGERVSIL
T3 sequence (P28482 whole entry): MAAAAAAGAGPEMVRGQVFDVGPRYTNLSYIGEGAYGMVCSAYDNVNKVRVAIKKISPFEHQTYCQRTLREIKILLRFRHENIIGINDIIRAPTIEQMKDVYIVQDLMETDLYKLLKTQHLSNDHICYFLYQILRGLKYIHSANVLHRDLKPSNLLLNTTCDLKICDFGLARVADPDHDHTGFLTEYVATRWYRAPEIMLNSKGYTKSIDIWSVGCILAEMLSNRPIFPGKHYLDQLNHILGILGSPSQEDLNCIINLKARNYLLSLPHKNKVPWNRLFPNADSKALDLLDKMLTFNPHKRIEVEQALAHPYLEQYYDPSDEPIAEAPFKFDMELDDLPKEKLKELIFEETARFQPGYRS
T1 sequence (Q04771 whole entry): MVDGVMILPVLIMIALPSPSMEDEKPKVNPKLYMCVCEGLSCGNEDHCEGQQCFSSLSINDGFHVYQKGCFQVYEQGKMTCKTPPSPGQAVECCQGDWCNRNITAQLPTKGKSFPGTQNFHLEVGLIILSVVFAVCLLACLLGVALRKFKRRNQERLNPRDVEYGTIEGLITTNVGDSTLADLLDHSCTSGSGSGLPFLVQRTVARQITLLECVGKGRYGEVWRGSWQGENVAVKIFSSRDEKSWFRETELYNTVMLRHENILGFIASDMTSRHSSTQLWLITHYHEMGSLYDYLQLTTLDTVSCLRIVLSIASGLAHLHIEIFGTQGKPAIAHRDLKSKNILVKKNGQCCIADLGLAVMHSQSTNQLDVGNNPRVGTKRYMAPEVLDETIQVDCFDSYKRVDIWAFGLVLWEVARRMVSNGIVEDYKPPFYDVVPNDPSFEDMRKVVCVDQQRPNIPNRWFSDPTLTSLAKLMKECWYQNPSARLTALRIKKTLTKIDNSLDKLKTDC
T4 sequence (P49841 whole entry): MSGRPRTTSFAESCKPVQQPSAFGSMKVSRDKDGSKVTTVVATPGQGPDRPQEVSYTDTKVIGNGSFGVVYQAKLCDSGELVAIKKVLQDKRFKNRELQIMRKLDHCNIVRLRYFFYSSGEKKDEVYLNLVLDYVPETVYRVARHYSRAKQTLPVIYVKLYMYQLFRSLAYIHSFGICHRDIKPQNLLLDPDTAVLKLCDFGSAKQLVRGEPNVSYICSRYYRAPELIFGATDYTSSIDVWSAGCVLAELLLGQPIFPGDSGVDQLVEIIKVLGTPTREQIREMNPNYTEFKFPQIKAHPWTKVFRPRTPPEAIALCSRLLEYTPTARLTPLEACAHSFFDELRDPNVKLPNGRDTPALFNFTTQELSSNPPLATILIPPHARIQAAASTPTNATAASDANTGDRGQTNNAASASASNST
Sequence of TXK (P42681 whole entry): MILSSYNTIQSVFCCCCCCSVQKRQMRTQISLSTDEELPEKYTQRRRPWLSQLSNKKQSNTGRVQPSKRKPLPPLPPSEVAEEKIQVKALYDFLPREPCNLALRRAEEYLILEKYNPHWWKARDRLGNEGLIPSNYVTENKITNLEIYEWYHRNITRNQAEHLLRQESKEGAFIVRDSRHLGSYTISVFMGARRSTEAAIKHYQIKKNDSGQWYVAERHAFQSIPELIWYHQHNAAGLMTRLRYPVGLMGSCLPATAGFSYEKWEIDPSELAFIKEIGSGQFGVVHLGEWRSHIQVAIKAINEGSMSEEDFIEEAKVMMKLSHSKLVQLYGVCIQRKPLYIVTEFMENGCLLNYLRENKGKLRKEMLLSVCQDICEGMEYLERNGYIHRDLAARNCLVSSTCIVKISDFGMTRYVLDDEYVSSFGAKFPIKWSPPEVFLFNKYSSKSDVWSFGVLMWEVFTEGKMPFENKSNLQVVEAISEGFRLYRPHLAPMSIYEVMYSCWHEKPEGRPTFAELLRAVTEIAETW
Sequence of MELK (Q14680 whole entry): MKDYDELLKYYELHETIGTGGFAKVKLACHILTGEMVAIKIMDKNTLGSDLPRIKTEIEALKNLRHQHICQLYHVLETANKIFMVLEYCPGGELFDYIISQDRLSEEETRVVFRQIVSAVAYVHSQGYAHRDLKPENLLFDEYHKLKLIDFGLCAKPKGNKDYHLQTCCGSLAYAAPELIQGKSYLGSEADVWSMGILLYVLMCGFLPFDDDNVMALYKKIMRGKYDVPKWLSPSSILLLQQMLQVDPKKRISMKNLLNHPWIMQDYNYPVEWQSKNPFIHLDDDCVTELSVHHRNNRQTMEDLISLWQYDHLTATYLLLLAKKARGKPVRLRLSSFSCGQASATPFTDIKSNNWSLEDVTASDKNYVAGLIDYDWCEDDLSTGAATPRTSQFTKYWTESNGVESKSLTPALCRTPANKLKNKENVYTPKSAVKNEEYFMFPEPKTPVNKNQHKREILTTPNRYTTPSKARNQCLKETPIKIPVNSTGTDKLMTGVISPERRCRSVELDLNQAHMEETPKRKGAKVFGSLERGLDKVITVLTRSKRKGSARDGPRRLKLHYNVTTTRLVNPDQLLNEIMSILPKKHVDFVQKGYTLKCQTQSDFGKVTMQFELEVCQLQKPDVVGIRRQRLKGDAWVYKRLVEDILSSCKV
Sequence of BTK (Q06187 whole entry): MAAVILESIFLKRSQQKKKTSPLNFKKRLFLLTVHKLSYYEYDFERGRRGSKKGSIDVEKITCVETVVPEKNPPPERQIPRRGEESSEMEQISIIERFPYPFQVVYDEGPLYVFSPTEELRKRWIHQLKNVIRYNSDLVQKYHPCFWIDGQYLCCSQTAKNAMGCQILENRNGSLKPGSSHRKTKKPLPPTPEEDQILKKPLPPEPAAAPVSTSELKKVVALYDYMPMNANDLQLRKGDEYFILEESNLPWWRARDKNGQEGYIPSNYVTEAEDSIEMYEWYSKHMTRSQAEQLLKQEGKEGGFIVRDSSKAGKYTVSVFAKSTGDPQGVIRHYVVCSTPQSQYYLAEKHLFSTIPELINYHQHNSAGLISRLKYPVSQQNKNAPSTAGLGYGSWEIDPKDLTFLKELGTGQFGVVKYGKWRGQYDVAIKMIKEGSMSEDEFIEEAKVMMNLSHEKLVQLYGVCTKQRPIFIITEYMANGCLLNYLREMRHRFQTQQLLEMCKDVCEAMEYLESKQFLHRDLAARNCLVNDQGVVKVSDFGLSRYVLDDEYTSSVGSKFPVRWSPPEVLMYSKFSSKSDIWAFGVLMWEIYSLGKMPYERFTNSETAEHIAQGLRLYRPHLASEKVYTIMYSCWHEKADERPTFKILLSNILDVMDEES
Sequence of AKT1 (P31749 whole entry): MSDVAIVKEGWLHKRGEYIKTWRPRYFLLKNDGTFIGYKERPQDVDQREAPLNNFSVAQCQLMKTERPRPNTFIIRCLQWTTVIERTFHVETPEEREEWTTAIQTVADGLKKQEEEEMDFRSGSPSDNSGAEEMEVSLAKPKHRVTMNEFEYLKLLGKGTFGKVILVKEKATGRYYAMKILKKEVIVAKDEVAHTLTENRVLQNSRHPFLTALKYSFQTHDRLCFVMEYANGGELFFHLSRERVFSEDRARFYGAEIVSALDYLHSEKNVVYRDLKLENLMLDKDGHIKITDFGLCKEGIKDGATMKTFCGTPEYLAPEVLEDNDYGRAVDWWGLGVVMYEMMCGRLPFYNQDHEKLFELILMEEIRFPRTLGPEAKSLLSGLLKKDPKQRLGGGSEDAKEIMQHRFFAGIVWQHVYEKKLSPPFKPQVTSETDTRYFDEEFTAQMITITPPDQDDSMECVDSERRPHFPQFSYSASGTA

COc1cc2c(cn1)N(C)C(=O)[C@@H](NC(=O)c1nc3n(n1)[C@H](c1ccccc1)CC3)CC2 [GNE684, (S)-N-((S)-7-methoxy-1-methyl-2-oxo-2,3,4,5-tetrahydro-1H-pyrido[3,4-b]azepin-3-yl)-5-phenyl-6,7-dihydro-5H-pyrrolo[1,2-b][1,2,4]triazole-2-carboxamide]
inhibition at 10 µM (AKT1): 2.5%
inhibition at 10 µM (ALK2): 2%
inhibition at 10 µM (BTK): -3.5%
inhibition at 10 µM (CaMKI_delta): 7.5%
inhibition at 10 µM (DDR1): 4.5%
inhibition at 10 µM (EPHA7): -4%
inhibition at 10 µM (ERK2): 1%
inhibition at 10 µM (FLT1): 3.5%
inhibition at 10 µM (GSK3_beta): 5%
inhibition at 10 µM (IKK-beta): 8.5%
inhibition at 10 µM (INSR): 3.5%
inhibition at 10 µM (JAK2): 2.5%
inhibition at 10 µM (MELK): 13%
inhibition at 10 µM (MSSK1): 2.5%
inhibition at 10 µM (MTOR): 2%
inhibition at 10 µM (PKD1): 3%
inhibition at 10 µM (RSK3): 6%
inhibition at 10 µM (SGK1): -1%
inhibition at 10 µM (SPHK1): 4.5%
inhibition at 10 µM (SYK): -1.5%
inhibition at 10 µM (TBK1): 1%
inhibition at 10 µM (TXK): 5.5%
inhibition at 10 µM (ZAK): -0.5%
